{"source": "patent US7074812B2", "about": "“Development of muscle mass in a mammal” (Nutraleutical Development Corporation, priority 2002, dated 2006)", "key": {"healthy male mice": {"system": "healthy male mice", "conditions": "60 micrograms nicotine/ml drinking water", "text": "To study the effects of nicotine in the diet of mice in combination with exercise, 34 mice were divided into two equal groups. The diet of one group of mice was supplemented with nicotine added to the drinking water and the other group had plain water. Both groups received the same chow and water freely.\nThe experiment was a double-blind investigative study including a total of 34 healthy male mice that were approximately 9 weeks old, weighing approximately 35 grams. The mice were received one week prior to the start of the study to allow for a week of acclimation to the study site and the handlers. Because mice are active when it is dark and sleep when it is light, an automatic lighting system (12 hour dark/12 hour light) was set up for the duration of the study. The dark cycle was from 9 pm to 9 am and the light cycle from 9 am to 9 pm. The mice were subjected to a 3 week weighted exercise regimen on a treadmill wheel.\nThe 34 mice were divided in 2 groups of 17 mice each. Group 1 (nicotine treatment) received water laced with nicotine containing 60 micrograms nicotine/ml water and 10 mg saccharine tablet or pinch of a sugar substitute powder. The sugar substitute served to mask the bitter taste of nicotine in the water. Group 2 (placebo or control) followed the same weight exercise regimen as the nicotine treatment group. Their drinking water was plain water with the same amount of saccharine or sugar substitute as in Group 1. Each mouse had access to its water ad libitum daily during the study period, regardless of the group. Weekly water consumption was measured.\nMice in both groups were subjected to a weight/exercise regimen in the morning at the end of the dark cycle around 8:00 am. Weights were affixed to each animal at the beginning of the exercise. The weights were approximately 10% of body weight measured at Day -1 of the study, and adjusted based on body weight, measured weekly. The mice were exercised for 15 minutes per day or until exhaustion, 5 days a week for 3 weeks on a Mouse Forced Exercise Walking/Running Wheel System (Model 80800, Lafayette Instrument, North Lafayette, Ind. 47903). The largest part of the upper hind muscle of the mice was measured with a dial caliper every week. Two measurements on each leg were taken and the average was calculated."}, "[1]": {"system": "males aged 30–59 years old", "method": "In order to determine the effects of a nicotine supplement on human subjects, a double blind placebo controlled study was conducted. The study tested 32 males aged 30–59 years old. Each participant needed to have been weight-lifting and exercising on a consistent basis for at least one full year prior to the study. The study required each of the 32 males to remain consistent with their current exercise program (minimum of 3×'s per week), required not to add any new exercises to their current program, not add any new supplements to their diet during the six week study and to take the nicotine supplement 30 minutes prior to exercise. The nicotine supplement was 3 micrograms of nicotine in a standard 300 mg capsule containing polyethylene gycol (PEG) as a vehicle. The placebo capsule was identical in all aspects but contained no active (nicotine) ingredients.\nThe 32 males were subdivided into 4 groups, 2 placebo groups (8 took 1 capsule and 8 took 2 capsules with no active nicotine ingredients prior to exercise). In the other two groups (active), 8 subjects took 3 micrograms of nicotine and 8 took 6 micrograms of nicotine prior to exercise. The individuals were tested in the beginning and conclusion of the study in the following areas: (1) overall body fat/lean muscle ratio (ELG impedance test was used, which is 98% accurate compared to skinfold testing); (2) biceps; (3) upper leg muscle mass; and (4) 10 exercise repetition maximum, for both upper and lower body strength test (bench press and leg press). Participant workouts were logged by each individual in their own notebooks, to ensure consistency and compliance"}, "[2]": {"conditions": "1 capsule (3 micrograms of nicotine), n = 8"}, "[3]": {"conditions": "2 capsules (6 micrograms of nicotine), n = 8"}, "[4]": {"conditions": "Nicotine 1 or 2 capsules pooled, n = 16"}, "[5]": {"conditions": "individual subjects, six-week study"}}, "note": "Like-named read-outs stand apart in the source and are kept apart here."}
{"compound": "CN1CCCC1c1cccnc1", "note": "(stereo not shown) [Nicotine, nicotine]", "values": [{"measurement": "increase in leg diameter versus control group, overall", "setting": "healthy male mice; 3 weeks", "value": "significantly greater increase in leg diameter"}, {"measurement": "average increase of leg diameter, average of day 7, 14 and 21 compared with day 0", "setting": "healthy male mice; control 0.5 mm", "value": 1.7, "unit": "mm"}, {"measurement": "average increase of leg diameter compared to day 0", "setting": "healthy male mice; day 7, control 0.6 mm", "value": 1.6, "unit": "mm"}, {"measurement": "average increase of leg diameter compared to day 0", "setting": "healthy male mice; day 14, control 2.1 mm", "value": 2.8, "unit": "mm"}, {"measurement": "increase of leg diameter compared to day 0", "setting": "healthy male mice; day 21, control 1.1 mm decrease", "value": 0.7, "unit": "mm"}, {"measurement": "Upper-body Strength, Change Over Study (Post-Pre), Median (Range)", "setting": "[1]; 1 capsule (3 micrograms of nicotine) prior to exercise, n = 8, bench press 10 repetition maximum", "value": "10.00 (5.00, 20.00)"}, {"measurement": "Bicep Circumference, Change Over Study (Post-Pre), Median (Range)", "setting": "[1]; [2]", "value": "0.45 (−0.20, 2.00) cm"}, {"measurement": "Body Fat %, Change Over Study (Post-Pre), Median (Range)", "setting": "[1]; [2]", "value": "−0.65 (−1.90, 0.70) %"}, {"measurement": "Body Mass Index, Change Over Study (Post-Pre), Median (Range)", "setting": "[1]; [2]", "value": "−0.13 (−0.79, 0.45)"}, {"measurement": "Lean Mass %, Change Over Study (Post-Pre), Median (Range)", "setting": "[1]; [2]", "value": "0.65 (−0.70, 1.90) %"}, {"measurement": "Quadricep Circumference, Change Over Study (Post-Pre), Median (Range)", "setting": "[1]; [2]", "value": "0.00 (−2.00, 2.50) cm"}, {"measurement": "Weight, Change Over Study (Post-Pre), Median (Range)", "setting": "[1]; [2]", "value": "−1.00 (−6.00, 3.00) lbs"}, {"measurement": "Lower-body Strength, Change Over Study (Post-Pre), Median (Range)", "setting": "[1]; 1 capsule (3 micrograms of nicotine), n = 8, leg press 10 repetition maximum", "value": "65.00 (15.00, 90.00)"}, {"measurement": "Upper-body Strength, Change Over Study (Post-Pre), Median (Range)", "setting": "[1]; 2 capsules (6 micrograms of nicotine) prior to exercise, n = 8, bench press 10 repetition maximum", "value": "10.00 (5.00, 20.00)"}, {"measurement": "Bicep Circumference, Change Over Study (Post-Pre), Median (Range)", "setting": "[1]; [3]", "value": "0.63 (−1.50, 1.70) cm"}, {"measurement": "Body Fat %, Change Over Study (Post-Pre), Median (Range)", "setting": "[1]; [3]", "value": "−1.05 (−5.90, 0.10) %"}, {"measurement": "Body Mass Index, Change Over Study (Post-Pre), Median (Range)", "setting": "[1]; [3]", "value": "−0.08 (−1.22, 0.94)"}, {"measurement": "Lean Mass %, Change Over Study (Post-Pre), Median (Range)", "setting": "[1]; [3]", "value": "1.05 (−0.10, 5.90) %"}, {"measurement": "Quadricep Circumference, Change Over Study (Post-Pre), Median (Range)", "setting": "[1]; [3]", "value": "0.00 (−2.00, 3.00) cm"}, {"measurement": "Weight, Change Over Study (Post-Pre), Median (Range)", "setting": "[1]; [3]", "value": "−0.50 (−8.00, 6.75) lbs"}, {"measurement": "Lower-body Strength, Change Over Study (Post-Pre), Median (Range)", "setting": "[1]; 2 capsules (6 micrograms of nicotine), n = 8, leg press 10 repetition maximum", "value": "80.00 (20.00, 320.00)"}, {"measurement": "Bicep Circumference, Change Over Study (Post-Pre), Median (Range)", "setting": "[1]; [4]", "value": "0.45 (−1.50, 2.00) cm"}, {"measurement": "Body Fat %, Change Over Study (Post-Pre), Median (Range)", "setting": "[1]; [4]", "value": "−0.95 (−5.90, 0.70) %"}, {"measurement": "Body Mass Index, Change Over Study (Post-Pre), Median (Range)", "setting": "[1]; [4]", "value": "−0.11 (−1.22, 0.94)"}, {"measurement": "Lean Mass %, Change Over Study (Post-Pre), Median (Range)", "setting": "[1]; [4]", "value": "0.95 (−0.70, 5.90) %"}, {"measurement": "Lower-body Strength, Change Over Study (Post-Pre), Median (Range)", "setting": "[1]; [4]", "value": "70.00 (15.00, 320.00)"}, {"measurement": "Quadricep Circumference, Change Over Study (Post-Pre), Median (Range)", "setting": "[1]; [4]", "value": "0.00 (−2.00, 3.00) cm"}, {"measurement": "Upper-body Strength, Change Over Study (Post-Pre), Median (Range)", "setting": "[1]; [4]", "value": "10.00 (5.00, 20.00)"}, {"measurement": "Weight, Change Over Study (Post-Pre), Median (Range)", "setting": "[1]; [4]", "value": "−0.75 (−8.00, 6.75) lbs"}, {"measurement": "subjects who noted an increase in overall endurance, leg strength and a strong thermogenic effect", "setting": "[1]; active (nicotine) group, six-week study", "value": "13 of the 16"}, {"measurement": "individuals who made significant changes in either body, strength levels or muscle mass or in all three test areas", "setting": "[1]; active (nicotine) group, placebo five of the sixteen", "value": "Fifteen of the sixteen"}, {"measurement": "change of overall body fat, one subject", "setting": "[1]; individual subject, six-week study", "value": 32, "unit": "%"}, {"measurement": "increase of leg strength, five subjects", "setting": "[1]; [5]", "value": "over 25%"}, {"measurement": "increase of leg strength, two of the five subjects", "setting": "[1]; [5]", "value": 40, "unit": "%"}]}
